Experiments:
MT-4 cytotoxicity assay = format: cell-based; details: human, five days incubation, Cell Titer Glo
Procedure: The MT-4 cell line (HTLV-1 transformed, human T lymphoblastoid cells) was obtained from the NIH AIDS Reagent program (Bethesda, Md.). MT-4 cells were maintained in RPMI-1640 supplemented with 10% fetal bovine serum (FBS, Hyclone, Logan, Utah). All cell culture media were also supplemented with 100 Units/mL penicillin, 100 μg/mL streptomycin (Gibco). For the MT-4 cytotoxicity assay, 0.4 μL of serially diluted solutions of certain compounds disclosed herein were added to 40 μL of cell maintenance media in 384-well black, solid bottom plate using a Biomek FX workstation (Beckman Coulter). Two thousand cells in 35 μL were added to each well using a Biotek uFlow Workstation (Biotek). Each assay plate contained 10 μM puromycin (final concentration) and 0.5% DMSO in RPMI-1640 as positive and negative controls, respectively. Assay plates were incubated for five days at 37° C. in an incubator set at 5% CO2 and 90% humidity. After five days, 22 μL of Cell Titer Glo reagent (Promega) was added to the assay plates with a Biotek uFlow Workstation. Plates were subsequently placed on a Perkin Elmer Envision Plate Reader for five minutes before the luminescence signal was read. CC50 values were calculated by non-linear regression using Pipeline Pilot software by applying a four parameter fit equation (Accelrys, San Diego, Calif.) and are reported in the following Table 2.

HBsAg = assay: PHH assay for inhibition of HBsAg; format: cell-based, genotype D (AD38-derived) HBV in primary human hepatocytes; details: Hepatitis B virus, 288 h, read-out: HBsAg EC50
Procedure: Primary human hepatocytes (PHH) (Bioreclamation IVT) were plated on collagen-coated flasks using Plating Media (Life Technologies) containing William's Medium E supplemented with 1% penicillin/streptomycin, 4 μg/mL human recombinant insulin, 2 mM GlutaMAX, 15 mM HEPES, 1 μM dexamethasone, 5% fetal bovine serum, and 0.2% Torpedo Antibiotic Mix (Bioreclamation IVT). After a 4-hour incubation at 37° C., cells were switched to Maintenance Media (Life Technologies) containing William's Medium E supplemented with 0.5% penicillin/streptomycin, 6.25 µg/mL human recombinant insulin, 6.25 μg/mL human transferrin, 6.25 ng/mL selenous acid, 1.25 mg/mL bovine serum albumin, 5.35 μg/mL linoleic acid, 2 mM GlutaMAX, 15 mM HEPES, 0.1 μM dexamethasone, 2% fetal bovine serum, 2% DMSO, and 0.2% Torpedo Antibiotic Mix (Bioreclamation IVT). On the next day, PHH were infected with 500 genome equivalent per cell of genotype D (AD38-derived) HBV in Maintenance Media supplemented with 4% PEG 8000 (Promega). After 24 hour incubation, cells were washed three times with William's Medium E and fed with fresh Maintenance Media. At 3 days after infection, infected PHH cells were seeded on 96-well plates pre-coated with collagen at a density of 65000 cells per well containing serially diluted solutions of certain compounds disclosed herein or DMSO (1% final concentration) in a final volume of 125 μl of Maintenance Media (Life Technologies) containing William's Medium E supplemented with 0.5% penicillin/streptomycin, 6.25 μg/mL human recombinant insulin, 6.25 μg/mL human transferrin, 6.25 ng/mL selenous acid, 1.25 mg/mL bovine serum albumin, 5.35 μg/mL linoleic acid, 2 mM GlutaMAX, 15 mM HEPES, 0.1 μM dexamethasone, 5% fetal bovine serum, 1 mM 1-amininobenzotriaole, and 0.2% Torpedo Antibiotic Mix (Bioreclamation IVT). Media with compounds was replenished every 2-3 days. After an incubation time of 12 days, secreted HBsAg in the supernatant were measured using a multiplex chemiluminescent (Mesoscale discovery, MSD) assay using capture and detection antibody pairs specific for HBsAg. Comparative Example 1 and Comparative Example 2 have the following structures and were prepared according to International Publication No. WO 2015/113990.

| SMILES | CC50 at 5 days (MT-4 cytotoxicity assay; MT-4 cells) | EC50 (HBsAg) | CC50 at 5 days (MT-4 cytotoxicity assay) |
| --- | --- | --- | --- |
| COCCCOc1cc2c(cc1Cl)-c1cc(=O)c(C(=O)O)cn1N(C1(C)CC1)C2 [Example 6, 10-chloro-9-(3-methoxypropoxy)-6-(1-methylcyclopropyl)-2-oxo-6,7-dihydro-2H-pyrido[2,1-a]phthalazine-3-carboxylic acid] | > 10 µM |  |  |
| CCC(C)(C)N1Cc2cc(OCCCOC)c(Cl)cc2-c2cc(=O)c(C(=O)O)cn21 [Example 17, 10-chloro-9-(3-methoxypropoxy)-2-oxo-6-(tert-pentyl)-6,7-dihydro-2H-pyrido[2,1-a]phthalazine-3-carboxylic acid] | > 10 µM | 29.5 nM |  |
| [2H]C([2H])([2H])OCCCOc1cc2c(cc1Cl)-c1cc(=O)c(C(=O)O)cn1N(C(C)(C)C)C2 [Example 12, 6-(tert-butyl)-10-chloro-9-(3-(methoxy-d3)propoxy)-2-oxo-6,7-dihydro-2H-pyrido[2,1-a]phthalazine-3-carboxylic acid] | 9.3 µM | 7.7 nM |  |
| COCCCOc1cc2c(cc1Cl)-c1cc(=O)c(C(=O)O)cn1N(C(C)(C)CO)C2 [Example 16, 10-chloro-6-(1-hydroxy-2-methylpropan-2-yl)-9-(3-methoxypropoxy)-2-oxo-6,7-dihydro-2H-pyrido[2,1-a]phthalazine-3-carboxylic acid] | > 10 µM | 66.9 nM |  |
| CC(C)(C)N1Cc2cc(OCCOCC(F)(F)F)c(Cl)cc2-c2cc(=O)c(C(=O)O)cn21 [Example 13, 6-(tert-butyl)-10-chloro-2-oxo-9-(2-(2,2,2-trifluoroethoxy)ethoxy)-6,7-dihydro-2H-pyrido[2,1-a]phthalazine-3-carboxylic acid] | 5.2 µM | 58.8 nM |  |
| COCCCOc1cc2c(cc1OC)-c1cc(=O)c(C(=O)O)cn1N(C(C)(C)C(F)(F)F)C2 [Example 15, 10-methoxy-9-(3-methoxypropoxy)-2-oxo-6-(1,1,1-trifluoro-2-methylpropan-2-yl)-6,7-dihydro-2H-pyrido[2,1-a]phthalazine-3-carboxylic acid] | > 10 µM | 25.3 nM |  |
| COCCCOc1cc2c(cc1Cl)-c1cc(=O)c(C(=O)O)cn1N(C1(C(F)(F)F)CC1)C2 [Example 3, 10-chloro-9-(3-methoxypropoxy)-2-oxo-6-(1-(trifluoromethyl)cyclopropyl)-6,7-dihydro-2H-pyrido[2,1-a]phthalazine-3-carboxylic acid] | > 10 µM | 3.1 nM |  |
| COCCCOc1cc2c(cc1Cl)-c1cc(=O)c(C(=O)O)cn1N(C1(C)CC(F)(F)C1)C2 [Example 19, 10-chloro-6-(3,3-difluoro-1-methylcyclobutyl)-9-(3-methoxypropoxy)-2-oxo-6,7-dihydro-2H-pyrido[2,1-a]phthalazine-3-carboxylic acid] | > 10 µM | 99.2 nM |  |
| COCCCOc1cc2c(cc1Cl)-c1cc(=O)c(C(=O)O)cn1N(CC(C)(C)C)C2 [Example 18, 10-chloro-9-(3-methoxypropoxy)-6-neopentyl-2-oxo-6,7-dihydro-2H-pyrido[2,1-a]phthalazine-3-carboxylic acid] | > 10 µM | 168 nM |  |
| COCCCOc1cc2c(cc1Cl)-c1cc(=O)c(C(=O)O)cn1N(C13CC(C1)C3)C2 [Example 5, 6-(bicyclo[1.1.1]pentan-1-yl)-10-chloro-9-(3-methoxypropoxy)-2-oxo-6,7-dihydro-2H-pyrido[2,1-a]phthalazine-3-carboxylic acid] | > 10 µM | 4 nM |  |
| COCCCOc1cc2c(cc1OC)-c1cc(=O)c(C(=O)O)cn1N(C1(C(F)(F)F)CC1)C2 [Example 14, 10-methoxy-9-(3-methoxypropoxy)-2-oxo-6-(1-(trifluoromethyl)cyclopropyl)-6,7-dihydro-2H-pyrido[2,1-a]phthalazine-3-carboxylic acid] | > 10 µM | 8.7 nM |  |
| COCCCOc1cc2c(cc1Cl)-c1cc(=O)c(C(=O)O)cn1N(C(C)(C)COC)C2 [Example 8, 10-chloro-6-(1-methoxy-2-methylpropan-2-yl)-9-(3-methoxypropoxy)-2-oxo-6,7-dihydro-2H-pyrido[2,1-a]phthalazine-3-carboxylic acid] | > 10 µM | 11 nM |  |
| COCCCOc1cc2c(cc1Cl)-c1cc(=O)c(C(=O)O)cn1N(C1(C(F)(F)F)CCC1)C2 [Example 4, 10-chloro-9-(3-methoxypropoxy)-2-oxo-6-(1-(trifluoromethyl)cyclobutyl)-6,7-dihydro-2H-pyrido[2,1-a]phthalazine-3-carboxylic acid] | 8.1 µM | 11.2 nM |  |
| COCCCOc1cc2c(cc1Cl)-c1cc(=O)c(C(=O)O)cn1N(C1(C)CCC1)C2 [Example 7, 10-chloro-9-(3-methoxypropoxy)-6-(1-methylcyclobutyl)-2-oxo-6,7-dihydro-2H-pyrido[2,1-a]phthalazine-3-carboxylic acid] | > 10 µM | 6.8 nM |  |
| COCCCOc1cc2c(cc1OC)-c1cc(=O)c(C(=O)O)cn1N(C(C)(C)COC)C2 [Example 11, 10-methoxy-6-(1-methoxy-2-methylpropan-2-yl)-9-(3-methoxypropoxy)-2-oxo-6,7-dihydro-2H-pyrido[2,1-a]phthalazine-3-carboxylic acid] | > 10 µM |  |  |
| COCCCOc1cc2c(cc1Cl)-c1cc(=O)c(C(=O)O)cn1N(C(C)(C)C(F)(F)F)C2 [Example 9, 10-chloro-9-(3-methoxypropoxy)-2-oxo-6-(1,1,1-trifluoro-2-methylpropan-2-yl)-6,7-dihydro-2H-pyrido[2,1-a]phthalazine-3-carboxylic acid] | > 10 µM |  |  |
| COCCCOc1cc2c(cc1OC)-c1cc(=O)c(C(=O)O)cn1N(C(C)(C)C)C2 [Example 10, 6-(tert-butyl)-10-methoxy-9-(3-methoxypropoxy)-2-oxo-6,7-dihydro-2H-pyrido[2,1-a]phthalazine-3-carboxylic acid] | > 10 µM | 1.6 nM |  |
| COCCCOc1cc2c(cc1Cl)-c1cc(=O)c(C(=O)O)cn1N(C)C2 [Example 1, 10-chloro-9-(3-methoxypropoxy)-6-methyl-2-oxo-6,7-dihydro-2H-pyrido[2,1-a]phthalazine-3-carboxylic acid] |  | 363 nM | 8.9 µM |

From US10100052B2, “Compounds for the treatment of hepatitis B virus infection” (Gilead Sciences, Inc., priority 2016, dated 2018)
